Consider 28 compounds from the supplement of paper PMC11923942.

The nature of data set [1]: GC retention time (DB-5MS, GC-APCI); higher = later elution. Here is the method: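 Standards of hydrophobic organic contaminants were analysed by GC-APCI (positive mode, dry or wet source conditions) coupled to cyclic ion mobility-QTOF MS. CCS was measured for the base ion (sometimes a fragment ion) in N2 drift gas (one-pass mode, calibrated with a Waters 22-compound mix). 5 mL/min).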

Data set [2] is described as follows: collision cross section (N2, base ion); higher = larger ion cross section. How it is done:
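Standards of hydrophobic organic contaminants were analysed by GC-APCI (positive mode, dry or wet source conditions) coupled to cyclic ion mobility-QTOF MS. CCS was measured for the base ion (sometimes a fragment ion) in N2 drift gas (one-pass mode, calibrated with a Waters 22-compound mix).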

With `Brc1c(Br)c(Br)c(Br)c(Br)c1Br` [Hexabromobenzene] (APCI source condition: Dry, base ion: M+.), the GC retention time in data set [1] is 21.8 min. Also, the collision cross section in data set [2] is given as 135.29 Å².

In data set [1], `CCCCC(CC)COP(=O)(OCC(CC)CCCC)OCC(CC)CCCC` (stereo unspecified) [Tris(2-ethylhexyl) phosphate] (APCI source condition: Wet, base ion: [M+H]+) returned a GC retention time of 21.5 min. This compound returned a collision cross section in data set [2] of 221.61 Å².

`Brc1cc(Br)c(Oc2cc(Br)c(Br)cc2Br)c(Br)c1` [PBDE 154] (APCI source condition: Dry, base ion: M+.): the GC retention time in data set [1] turned out to be 25.4 min. The collision cross section in data set [2] came to 178.18 Å².

`Clc1cc(Cl)c(-c2cc(Cl)c(Cl)c(Cl)c2Cl)cc1Cl` [PCB 180] (APCI source condition: Dry, base ion: M+.): the GC retention time in data set [1] is 22 min. Besides, in data set [2], the collision cross section came to 166.55 Å².

`c1ccc2c(c1)ccc1c3ccccc3ccc21` [Chrysene] (APCI source condition: Dry, base ion: M+.) displayed a GC retention time in data set [1] of 21.9 min. For the same compound, the collision cross section in data set [2] worked out at 141.28 Å².

In data set [1], `Clc1cc(Cl)c(-c2cc(Cl)c(Cl)cc2Cl)cc1Cl` [PCB 153] (APCI source condition: Dry, base ion: M+.) came in with a GC retention time of 20.3 min. Moreover, in data set [2], the collision cross section was 161.05 Å².

In data set [1], `CCCCC(CC)COC(=O)c1c(Br)c(Br)c(Br)c(Br)c1C(=O)OCC(CC)CCCC` (stereo unspecified) [Bis(2-ethylhexyl) tetrabromophthalate] (APCI source condition: Dry, base ion: C8HBr4O3+) registered a GC retention time of 30.1 min. In data set [2], the collision cross section worked out at 141.58 Å².

`Cl[C@H]1[C@H](Cl)[C@@H](Cl)[C@H](Cl)[C@@H](Cl)[C@@H]1Cl` [β-Hexachlorocyclohexane] (APCI source condition: Dry, base ion: [M-H2Cl3]+) registered a GC retention time in data set [1] of 15.1 min. For the same compound, in data set [2], the collision cross section is recorded as 138.19 Å².

For the compound `CCCCCCCCCCCCCCCCC(F)(F)C(F)(F)C(F)(F)C(F)(F)C(F)(F)C(F)(F)C(F)(F)C(F)(F)F` [1-(Perfluoro-n-octyl)hexadecane] (APCI source condition: Dry, base ion: [M-H]+), the GC retention time in data set [1] was determined as 16.8 min. This compound also came in with a collision cross section in data set [2] of 226.94 Å².

In data set [1], `ClC(Cl)=C(c1ccc(Cl)cc1)c1ccccc1Cl` [2,4'-DDE] (APCI source condition: Dry, base ion: M+.) returned a GC retention time of 18.7 min. This compound also came in with a collision cross section in data set [2] of 154.54 Å².

In turn, `Brc1cc(Br)c(Oc2cc(Br)c(Br)c(Br)c2Br)c(Br)c1` [PBDE 182] (APCI source condition: Dry, base ion: M+.) yielded a GC retention time in data set [1] of 28.4 min. Moreover, in data set [2], the collision cross section worked out at 185.51 Å².

`Clc1ccc(-c2cc(Cl)c(Cl)c(Cl)c2Cl)c(Cl)c1Cl` [PCB 170] (APCI source condition: Dry, base ion: M+.) had a GC retention time in data set [1] of 22.5 min. Also, in data set [2], the collision cross section came out at 165.18 Å².

The compound `c1ccc2c(c1)-c1ccc3ccc4cccc5cc-2c1c3c45` [Indeno(1,2,3-cd)pyrene] (APCI source condition: Dry, base ion: M+.) returned a GC retention time in data set [1] of 27.7 min. This compound also showed a collision cross section in data set [2] of 148.24 Å².

`Brc1ccc(Oc2ccc(Br)c(Br)c2)c(Br)c1` [PBDE 66] (APCI source condition: Dry, base ion: M+.): in data set [1], the GC retention time came to 22.5 min. The collision cross section in data set [2] was found to be 163.83 Å².

`Clc1cc(Cl)c(Cl)c(Cl)c1Cl` [Pentachlorobenzene] (APCI source condition: Dry, base ion: M+.) had a GC retention time in data set [1] of 12.4 min. For the same compound, in data set [2], the collision cross section turned out to be 135.24 Å².

`Brc1ccc(Oc2ccc(Br)cc2Br)c(Br)c1` [PBDE 47] (APCI source condition: Dry, base ion: M+.): in data set [1], the GC retention time was determined as 22.2 min. Further, the collision cross section in data set [2] stood at 162.71 Å².

Regarding `CCCCCCCCCCCCCCC(F)(F)C(F)(F)C(F)(F)C(F)(F)C(F)(F)C(F)(F)C(F)(F)C(F)(F)C(F)(F)C(F)(F)C(F)(F)C(F)(F)F` [1-(Perfluorododecyl)tetradecane] (APCI source condition: Dry, base ion: [M-H]+), in data set [1], the GC retention time was 16.7 min. This compound showed a collision cross section in data set [2] of 250.16 Å².

On to `Clc1cc(-c2ccccc2)c(Cl)c(Cl)c1Cl` [PCB 61] (APCI source condition: Dry, base ion: M+.), for which the GC retention time in data set [1] worked out at 18.3 min. Further, in data set [2], the collision cross section was 148.05 Å².

`c1cc2ccc3cccc4ccc(c1)c2c34` [Pyrene] (APCI source condition: Dry, base ion: M+.): in data set [1], the GC retention time was 18.9 min. Also, the collision cross section in data set [2] worked out at 137.65 Å².

`Brc1cc(Br)c(Oc2cc(Br)c(Br)cc2Br)cc1Br` [PBDE 153] (APCI source condition: Dry, base ion: M+.): in data set [1], the GC retention time was determined as 26 min. Further, the collision cross section in data set [2] turned out to be 180.67 Å².

As for `CCCCCCCCCCCCCCCCC(F)(F)C(F)(F)C(F)(F)C(F)(F)C(F)(F)C(F)(F)C(F)(F)C(F)(F)C(F)(F)C(F)(F)F` [1-(Henicosafluorodecyl)hexadecane] (APCI source condition: Dry, base ion: [M-H]+), in data set [1], the GC retention time was found to be 17.6 min. For the same compound, the collision cross section in data set [2] is on record as 241.65 Å².

Take `O=P(Oc1ccccc1)(Oc1ccccc1)Oc1ccccc1` [Triphenylphosphate] (APCI source condition: Wet, base ion: [M+H]+): the GC retention time in data set [1] worked out at 21.1 min. In data set [2], this compound gave a collision cross section of 168.91 Å².

In the case of `O=S1OC[C@@H]2[C@H](CO1)[C@@]1(Cl)C(Cl)=C(Cl)[C@]2(Cl)C1(Cl)Cl` (stereo partly drawn) [α-Endosulfan] (APCI source condition: Wet, base ion: [M+H]+), in data set [1], the GC retention time was 18.9 min. The same compound returned a collision cross section in data set [2] of 163.16 Å².

Consider `ClC1C(Cl)C(Cl)C(Cl)C(Cl)C1Cl` (stereo unspecified) [γ-Hexachlorocyclohexane] (APCI source condition: Dry, base ion: [M-H2Cl3]+), for which, in data set [1], the GC retention time was 15.2 min. This compound also registered a collision cross section in data set [2] of 137.38 Å².

Compound `CCCCCCCCCCCCCCCCC(F)(F)C(F)(F)C(F)(F)C(F)(F)C(F)(F)C(F)(F)C(F)(F)C(F)(F)C(F)(F)C(F)(F)C(F)(F)C(F)(F)F` [1-(Perfluorododecyl)hexadecane] (APCI source condition: Dry, base ion: [M-H]+) returned a GC retention time in data set [1] of 18.4 min. Also, the collision cross section in data set [2] is on record as 256.66 Å².

Turning to `ClC1CCCC(Br)(Br)C(Cl)(C2=CCCC2)C(Cl)(Cl)C1(Cl)Cl` (stereo unspecified) [Hexachlorocyclopentenyl-dibromocyclooctane] (APCI source condition: Dry, base ion: [M-CH4Cl2Br]+), the GC retention time in data set [1] turned out to be 24.4 min. This compound yielded a collision cross section in data set [2] of 152.06 Å².

In data set [1], `Clc1c(Cl)c(Cl)c(Cl)c(Cl)c1Cl` [Hexachlorobenzene] (APCI source condition: Dry, base ion: M+.) displayed a GC retention time of 14.6 min. The collision cross section in data set [2] is 135.29 Å².

`CCCCOCCOP(=O)(OCCOCCCC)OCCOCCCC` [Tris(2-butoxyethyl) phosphate] (APCI source condition: Wet, base ion: [M+H]+) registered a GC retention time in data set [1] of 21.1 min. The compound also yielded a collision cross section in data set [2] of 198.91 Å².
